Data on seven compounds can be found in PubChem BioAssay (NCI).

Structures are written as SMILES.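 Tested at 5 concentrations; 48 h exposure; 96-well plates; endpoints linearly interpolated, else capped at highest concentration. At the GI50, growth is halved. TGI marks complete inhibition of growth.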

Among the test systems are COLO 205 colon; EKVX NSCLC; HCC-2998 colon; HCT-15 colon; HL-60(TB) leukemia; M14 melanoma; MDA-MB-435; OVCAR-5 ovarian; OVCAR-8 ovarian; SF-268 CNS.
Holding throughout (assay): NCI tumour cell line growth inhibition, 48 h

For `C=C1C(=O)O[C@H]2[C@H]1CC/C(Cn1cc(-c3ccc(N)cc3)nn1)=C\CC[C@@]1(C)O[C@@H]21`, the GI50 in the assay with COLO 205 colon is 1.79 µM; with EKVX NSCLC, 3.89 µM; in the assay with HCC-2998 colon, 3.49 µM; in the assay with HCT-15 colon, 1.42 µM; in the assay with HL-60(TB) leukemia, 2.23 µM; in the assay with M14 melanoma it was 2.97 µM. Besides, the GI50 was 3.01 µM with MDA-MB-435, 6.43 µM in the assay with OVCAR-5 ovarian, 3.04 µM in the assay on OVCAR-8 ovarian and 3.7 µM in the assay with SF-268 CNS. Further, the TGI with COLO 205 colon was 4.05 µM; in the assay on EKVX NSCLC, 18.5 µM; in the assay with HCC-2998 colon it was 12 µM; with HCT-15 colon, 3.37 µM; in the assay on HL-60(TB) leukemia, 6.43 µM; in the assay with M14 melanoma it was 10.8 µM. In addition, the TGI in the assay with MDA-MB-435 amounted to 11.5 µM; in the assay on OVCAR-5 ovarian, 22.9 µM; with OVCAR-8 ovarian, 12.4 µM; in the assay on SF-268 CNS, 16.3 µM.

With `CC(=O)/C=C/c1ccc(Nc2c3ccccc3nc3occ(Cl)c23)cc1`, the GI50 was 4.46 µM with COLO 205 colon; 27.2 µM in the assay with EKVX NSCLC; 2.93 µM with HCC-2998 colon; 2.09 µM in the assay on HCT-15 colon; 3.1 µM with HL-60(TB) leukemia; 4.49 µM in the assay on M14 melanoma. Moreover, the GI50 was 2.03 µM in the assay with MDA-MB-435, 13.9 µM in the assay with OVCAR-5 ovarian, 2.03 µM in the assay on OVCAR-8 ovarian and 3.16 µM in the assay with SF-268 CNS. The TGI in the assay on COLO 205 colon amounted to 19.5 µM; with EKVX NSCLC, 78.2 µM; in the assay with HCC-2998 colon, 14.6 µM; in the assay with HCT-15 colon, 11.7 µM; with HL-60(TB) leukemia it was 8.56 µM; with M14 melanoma, 18.2 µM. The TGI with MDA-MB-435 was 5.95 µM; in the assay on OVCAR-5 ovarian, 30.7 µM; with OVCAR-8 ovarian it was 4.64 µM; in the assay with SF-268 CNS it was 17.5 µM.

Consider `Nc1nc(N)c2cc(Sc3ccc4ccccc4c3)ccc2n1`, for which the TGI in the assay with COLO 205 colon was determined as 2.91 µM; with EKVX NSCLC it was 14.5 µM; with HCC-2998 colon it was 2.13 µM; in the assay with HCT-15 colon, 2.55 µM; in the assay with HL-60(TB) leukemia it was 2.77 µM; in the assay on M14 melanoma, 2.88 µM. The TGI with MDA-MB-435 turned out to be 2.54 µM; in the assay with OVCAR-5 ovarian, 10.4 µM; in the assay on OVCAR-8 ovarian it was 2.84 µM; in the assay with SF-268 CNS it was 4.19 µM. In the assay with HCC-2998 colon, the GI50 is 0.878 µM.

On to `CCSc1ccc([C@@H]2[C@@H](O)C(=O)N2c2cc(OC)c(OC)c(OC)c2)cc1`, for which the GI50 in the assay on COLO 205 colon is 0.0163 µM; in the assay with EKVX NSCLC, 0.0226 µM; with HCC-2998 colon it was 0.0489 µM; in the assay with HCT-15 colon it was < 0.0109 µM; in the assay on HL-60(TB) leukemia, < 0.0134 µM; in the assay on M14 melanoma, < 0.01 µM. For the same compound, the GI50 is < 0.01 µM in the assay with MDA-MB-435, 0.0526 µM with OVCAR-5 ovarian, 0.0211 µM with OVCAR-8 ovarian and 0.0504 µM in the assay with SF-268 CNS. The TGI is 0.072 µM with COLO 205 colon; 53 µM in the assay on EKVX NSCLC; 17.4 µM with HCC-2998 colon; > 44.3 µM with HCT-15 colon; 0.0367 µM with HL-60(TB) leukemia; 15.8 µM with M14 melanoma. In addition, the TGI in the assay on MDA-MB-435 was < 0.0112 µM; in the assay with OVCAR-5 ovarian, > 100 µM; in the assay with OVCAR-8 ovarian, 16.8 µM; with SF-268 CNS, 51.7 µM.

As to `COc1ccc2c(c1)C(=O)/C(=C/c1cccc(OCC(=O)Nc3nc(C)c(C)s3)c1)O2`, the GI50 is 0.752 µM in the assay on COLO 205 colon; 0.677 µM in the assay on EKVX NSCLC; 1.53 µM in the assay with HCC-2998 colon; 1.34 µM in the assay on HCT-15 colon; 0.0444 µM with HL-60(TB) leukemia; 0.187 µM with M14 melanoma. In addition, the GI50 in the assay on MDA-MB-435 is 2.95 µM; in the assay on OVCAR-5 ovarian it was 0.205 µM; with OVCAR-8 ovarian, 0.647 µM; with SF-268 CNS, 0.0281 µM. Moreover, the TGI stood at 2.48 µM in the assay with COLO 205 colon; 15.3 µM in the assay with EKVX NSCLC; 3.54 µM with HCC-2998 colon; 2.98 µM in the assay on HCT-15 colon; 0.175 µM in the assay on HL-60(TB) leukemia; 0.426 µM with M14 melanoma. The TGI with MDA-MB-435 is 13.3 µM; in the assay on OVCAR-5 ovarian, 1.14 µM; with OVCAR-8 ovarian, 12.9 µM; with SF-268 CNS, 0.0743 µM.

On to `CCC(=O)N/S(=N/S(=O)(=O)c1ccccc1)C(Cl)(Cl)Cl` (stereo unspecified), for which the TGI in the assay on COLO 205 colon, with EKVX NSCLC, in the assay with HCC-2998 colon, with HCT-15 colon, with HL-60(TB) leukemia and with M14 melanoma was > 100 µM in each case. Moreover, the TGI in the assay on MDA-MB-435, in the assay with OVCAR-5 ovarian, in the assay with OVCAR-8 ovarian and in the assay with SF-268 CNS was > 100 µM throughout.

Consider `C/C(=C(/c1ccccc1)c1ccc(OCC(O)CNCCN2CCOCC2)cc1)c1ccccc1` (stereo unspecified), for which the GI50 is 1.95 µM in the assay on COLO 205 colon; 7.15 µM in the assay with EKVX NSCLC; 1.93 µM in the assay with HCC-2998 colon; 2.19 µM with HCT-15 colon; 1.95 µM in the assay with HL-60(TB) leukemia; 1.88 µM in the assay on M14 melanoma. Further, the GI50 was 1.67 µM with MDA-MB-435, 6.48 µM in the assay on OVCAR-5 ovarian, 3.74 µM in the assay with OVCAR-8 ovarian and 4 µM in the assay with SF-268 CNS. In addition, the TGI was determined as 4.17 µM in the assay on COLO 205 colon; 20.6 µM in the assay with EKVX NSCLC; 3.43 µM in the assay on HCC-2998 colon; 5.4 µM in the assay on HCT-15 colon; 4.04 µM in the assay on HL-60(TB) leukemia; 3.85 µM in the assay with M14 melanoma. Also, the TGI in the assay on MDA-MB-435 is 3.09 µM; in the assay on OVCAR-5 ovarian, 20.5 µM; with OVCAR-8 ovarian, 15.1 µM; in the assay on SF-268 CNS, 15.4 µM.
